# Test results taken from US11535621B2, “Heterobicyclic amides as inhibitors of CD38” (Ribon Therapeutics, Inc., priority 2019, dated 2022).
# Target: Human CD38 (Homo sapiens (Human), UniProt P28907)
# Assay: CD38 enzyme assay
# Type: biochemical
# Conditions: 2 nM CD38, NAD+ substrate, absorbance at 405 nm
# In short: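 IC50 values come from fitting % inhibition against compound concentration with a 4-parameter logistic, or a 3-parameter fit with top/bottom fixed at 100/0 or Hill at 1. Inhibition is scaled between DMSO wells and positive-control wells treated with a quinolinone CD38 inhibitor.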
# Human CD38, sequence (P28907 whole entry): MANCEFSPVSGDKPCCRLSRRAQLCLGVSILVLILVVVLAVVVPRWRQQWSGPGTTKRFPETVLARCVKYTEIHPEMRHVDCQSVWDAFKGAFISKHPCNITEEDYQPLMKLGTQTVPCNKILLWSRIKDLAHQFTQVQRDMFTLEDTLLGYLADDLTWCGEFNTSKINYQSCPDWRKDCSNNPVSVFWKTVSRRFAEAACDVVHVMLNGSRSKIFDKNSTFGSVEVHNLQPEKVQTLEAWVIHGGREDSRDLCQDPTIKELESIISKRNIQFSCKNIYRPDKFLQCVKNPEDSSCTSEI
row,Structure (SMILES),IC50
1,"O=C(NC1CCOC1)c1nc(-n2ccnc2)nc2cc[nH]c12 (stereo not shown) [Example 91, 2-(1H-Imidazol-1-yl)-N-(tetrahydrofuran-3-yl)-5H-pyrrolo[3,2-d]pyrimidine-4-carboxamide]",< 0.01 µM
2,"COCCO[C@H]1CC[C@H](NC(=O)c2cc(-n3ccnc3)cc3cc(C)[nH]c23)CC1 [Example 9, 5-(1H-Imidazol-1-yl)-N-((1r,4r)-4-(2-methoxyethoxy)cyclohexyl)-2-methyl-1H-indole-7-carboxamide]",0.1 to 1 µM
3,"CC(C)(N[C@H]1CC[C@H](NC(=O)c2nc(-n3ccnc3)nc3cn[nH]c23)CC1)C(F)(F)F [Example 276, 5-(1H-imidazol-1-yl)-N-((1r,4r)-4-((1,1,1-trifluoro-2-methylpropan-2-yl)amino)cyclohexyl)-1H-pyrazolo[4,3-d]pyrimidine-7-carboxamide]",0.01 to 0.1 µM
4,"O=C(NC1CCNCC1)c1nc(-n2ccnc2)nc2cc[nH]c12 [Example 54, 2-(1H-Imidazol-1-yl)-N-(piperidin-4-yl)-5H-pyrrolo[3,2-d]pyrimidine-4-carboxamide]",> 1 µM
5,"COCCOc1cccc(NC(=O)c2nc(-n3ccnc3)nc3cc[nH]c23)c1 [Example 100, 2-(1H-Imidazol-1-yl)-N-(3-(2-methoxyethoxy)phenyl)-5H-pyrrolo[3,2-d]pyrimidine-4-carboxamide]",< 0.01 µM
6,"CO[C@]1(C)CC[C@@H](NC(=O)c2nc(-n3ccnc3)nc3cc[nH]c23)CC1 [Example 128a, 2-(1H-imidazol-1-yl)-N-((1r,4r)-4-methoxy-4-methylcyclohexyl)-5H-pyrrolo[3,2-d]pyrimidine-4-carboxamide]",< 0.01 µM
7,"COCCO[C@H]1CC[C@H](NC(=O)c2cc(-c3cncs3)cc3nc[nH]c23)CC1 [Example 4, N-((1r,4r)-4-(2-Methoxyethoxy)cyclohexyl)-5-(thiazol-5-yl)-1H-benzo[d]imidazole-7-carboxamide]",0.1 to 1 µM
8,"N#CC1CN([C@H]2CC[C@H](NC(=O)c3nc(-n4ccnc4)cc4cn[nH]c34)CC2)C1 [Example 269, N-((1r,4r)-4-(3-cyanoazetidin-1-yl)cyclohexyl)-5-(1H-imidazol-1-yl)-1H-pyrazolo[3,4-c]pyridine-7-carboxamide]",0.01 to 0.1 µM
9,Cc1cc2nc(-n3ccnc3)nc(C(=O)N[C@H]3CC[C@H](C(C)(C)O)CC3)c2[nH]1 [Example 184],< 0.01 µM
10,COCCN1CCc2cc(NC(=O)c3nc(-n4ccnc4)nc4cc[nH]c34)ccc2C1 [Example 179],0.01 to 0.1 µM
11,"O=C(N[C@H]1CC[C@H](N2CC(C(F)(F)F)C2)CC1)c1nc(-n2ccnc2)cc2cn[nH]c12 [Example 234, 5-(1H-imidazol-1-yl)-N-((1r,4r)-4-(3-(trifluoromethyl)azetidin-1-yl)cyclohexyl)-1H-pyrazolo[3,4-c]pyridine-7-carboxamide]",0.01 to 0.1 µM
12,N#CC[C@H]1CC[C@H](NC(=O)c2nc(-n3ccnc3)nc3cc[nH]c23)CC1 [Example 185],< 0.01 µM
13,"O=C(Nc1cccc(Cl)c1)c1nc(-n2ccnc2)nc2cc[nH]c12 [Example 88, N-(3-Chlorophenyl)-2-(1H-imidazol-1-yl)-5H-pyrrolo[3,2-d]pyrimidine-4-carboxamide]",< 0.01 µM
14,"CNC(=O)[C@H]1CC[C@H](NC(=O)c2nc(-n3ccnc3)nc3cn[nH]c23)CC1 [Example 242, 5-(1H-imidazol-1-yl)-N-((1r,4r)-4-(methylcarbamoyl)cyclohexyl)-1H-pyrazolo[4,3-d]pyrimidine-7-carboxamide]",0.01 to 0.1 µM
15,"CC(C)[C@@](C)(O)CO[C@H]1CC[C@H](NC(=O)c2nc(-n3ccnc3)nc3cc[nH]c23)CC1 (single isomer, unassigned) [Example 126a]",0.01 to 0.1 µM
16,"COCCO[C@H]1CC[C@H](NC(=O)c2cc(-n3ccnc3)nc3cc[nH]c23)CC1 [Example 10, 5-(1H-imidazol-1-yl)-N-((1r,4r)-4-(2-methoxyethoxy)cyclohexyl)-1H-pyrrolo[3,2-b]pyridine-7-carboxamide]",0.01 to 0.1 µM
17,"COCCO[C@H]1CC[C@H](NC(=O)c2cc(-c3cncs3)cc3cc(C)[nH]c23)CC1 [Example 45, N-((1r,4r)-4-(2-Methoxyethoxy)cyclohexyl)-2-methyl-5-(thiazol-5-yl)-1H-indole-7-carboxamide]",0.1 to 1 µM
18,"O=C(NC1CCN(CC(F)(F)F)CC1)c1nc(-n2ccnc2)nc2cc[nH]c12 [Example 52, 2-(1H-Imidazol-1-yl)-N-(1-(2,2,2-trifluoroethyl)piperidin-4-yl)-5H-pyrrolo[3,2-d]pyrimidine-4-carboxamide]",0.01 to 0.1 µM
19,"N#CC[C@H]1CC[C@H](NC(=O)c2nc(-n3ccnc3)cc3cn[nH]c23)CC1 [Example 219, N-((1r,4r)-4-(cyanomethyl)cyclohexyl)-5-(1H-imidazol-1-yl)-1H-pyrazolo[3,4-c]pyridine-7-carboxamide]",< 0.01 µM
20,"COCCO[C@H]1CC[C@H](NC(=O)c2nc(-n3cnc(C)c3)nc3cc[nH]c23)CC1 [Example 37, N-((1r,4r)-4-(2-methoxyethoxy)cyclohexyl)-2-(4-methyl-1H-imidazol-1-yl)-5H-pyrrolo[3,2-d]pyrimidine-4-carboxamide]",> 1 µM

row,Structure (SMILES),IC50
1,"COc1ccc(NC(=O)c2nc(-n3ccnc3)nc3cc[nH]c23)cn1 [Example 85, 2-(1H-Imidazol-1-yl)-N-(6-methoxypyridin-3-yl)-5H-pyrrolo[3,2-d]pyrimidine-4-carboxamide]",< 0.01 µM
2,"O=C(N[C@H]1CC[C@H](N2CC(F)(F)C2)CC1)c1nc(-n2ccnc2)nc2cn[nH]c12 [Example 255, N-((1r,4r)-4-(3,3-difluoroazetidin-1-yl)cyclohexyl)-5-(1H-imidazol-1-yl)-1H-pyrazolo[4,3-d]pyrimidine-7-carboxamide]",0.01 to 0.1 µM
3,"CC(F)(F)CN[C@H]1CC[C@H](NC(=O)c2nc(-n3ccnc3)cc3ccsc23)CC1 [Example 262, N-((1r,4r)-4-((2,2-difluoropropyl)amino)cyclohexyl)-5-(1H-imidazol-1-yl)thieno[2,3-c]pyridine-7-carboxamide]",0.01 to 0.1 µM
4,O=C(N[C@H]1CC[C@H](N2CCCS2(=O)=O)CC1)c1nc(-n2ccnc2)nc2cc[nH]c12 [Example 178],0.01 to 0.1 µM
5,"O=C(NC1CCCC1)c1nc(-n2ccnc2)nc2cc[nH]c12 [Example 90, N-Cyclopentyl-2-(1H-imidazol-1-yl)-5H-pyrrolo[3,2-d]pyrimidine-4-carboxamide]",< 0.01 µM
6,"CNC(=O)c1nc(-n2ccnc2)nc2cc[nH]c12 [Example 70, 2-(1H-Imidazol-1-yl)-N-methyl-5H-pyrrolo[3,2-d]pyrimidine-4-carboxamide]",0.1 to 1 µM
7,"CN(CC(F)(F)F)[C@H]1CC[C@H](NC(=O)c2nc(-n3ccnc3)cc3cn[nH]c23)CC1 [Example 218, 5-(1H-imidazol-1-yl)-N-((1r,4r)-4-(methyl(2,2,2-trifluoroethyl)amino)cyclohexyl)-1H-pyrazolo[3,4-c]pyridine-7-carboxamide]",0.01 to 0.1 µM
8,"O=C(NCc1c(F)cccc1C(F)(F)F)c1nc(-c2cncs2)nc2ccsc12 [Example 20, N-(2-Fluoro-6-(trifluoromethyl)benzyl)-2-(thiazol-5-yl)thieno [3,2-d]pyrimidine-4-carboxamide]",0.1 to 1 µM
9,"O=C(N[C@H]1CC[C@H](NCC(F)F)CC1)c1nc(-n2ccnc2)cc2cn[nH]c12 [Example 195, N-((1r,4r)-4-((2,2-difluoroethyl)amino)cyclohexyl)-5-(1H-imidazol-1-yl)-1H-pyrazolo[3,4-c]pyridine-7-carboxamide]",0.01 to 0.1 µM
10,"CN(C)C(=O)CO[C@H]1CC[C@H](NC(=O)c2nc(-n3ccnc3)nc3cn[nH]c23)CC1 [Example 201, N-((1r,4r)-4-(2-(dimethylamino)-2-oxoethoxy)cyclohexyl)-5-(1H-imidazol-1-yl)-1H-pyrazolo[4,3-d]pyrimidine-7-carboxamide]",0.01 to 0.1 µM
11,"O=C(NC1CCN(CCC(F)(F)F)CC1)c1nc(-n2ccnc2)nc2cc[nH]c12 [Example 55, 2-(1H-Imidazol-1-yl)-N-(1-(3,3,3-trifluoropropyl)piperidin-4-yl)-5H-pyrrolo[3,2-d]pyrimidine-4-carboxamide]",0.01 to 0.1 µM
12,"O=C(Nc1ccc(OCCN2CCCC2)nc1)c1nc(-n2ccnc2)cc2cn[nH]c12 [Example 203, 5-(1H-imidazol-1-yl)-N-(6-(2-(pyrrolidin-1-yl)ethoxy)pyridin-3-yl)-1H-pyrazolo[3,4-c]pyridine-7-carboxamide]",0.01 to 0.1 µM
13,O=C(N[C@H]1CC[C@H](F)CC1)c1nc(-n2ccnc2)nc2cc[nH]c12 [Example 168],0.01 to 0.1 µM
14,O=C(Nc1ccncc1)c1nc(-n2ccnc2)nc2cc[nH]c12 [Example 138],< 0.01 µM
15,O=C(N[C@H]1CC[C@H](C(F)(F)F)CC1)c1nc(-n2ccnc2)cc2cn[nH]c12 [Example 171],< 0.01 µM
16,"C[C@]1(NCC(F)(F)F)CC[C@H](NC(=O)c2nc(-n3ccnc3)nc3cn[nH]c23)CC1 [Example 275, 5-(1H-imidazol-1-yl)-N-((1r,4r)-4-methyl-4-((2,2,2-trifluoroethyl)amino)cyclohexyl)-1H-pyrazolo[4,3-d]pyrimidine-7-carboxamide]",0.1 to 1 µM
17,"O=C(N[C@@H]1CCNC[C@H]1F)c1nc(-n2ccnc2)nc2cc[nH]c12 [Example 123b, N-((3R,4R)-3-fluoropiperidin-4-yl)-2-(1H-imidazol-1-yl)-5H-pyrrolo[3,2-d]pyrimidine-4-carboxamide]",0.1 to 1 µM
18,O=C(NCCC1CCC(F)(F)CC1)c1nc(-n2ccnc2)nc2cc[nH]c12 [Example 157],0.01 to 0.1 µM
19,"COCCO[C@H]1CC[C@H](NC(=O)c2nc(-n3ccnc3)nc3c(C)c[nH]c23)CC1 [Example 268, 2-(1H-imidazol-1-yl)-N-((1r,4r)-4-(2-methoxyethoxy)cyclohexyl)-7-methyl-5H-pyrrolo[3,2-d]pyrimidine-4-carboxamide]",0.01 to 0.1 µM
20,"N#CCO[C@H]1CC[C@H](NC(=O)c2nc(-n3ccnc3)cc3cn[nH]c23)CC1 [Example 215, N-((1r,4r)-4-(cyanomethoxy)cyclohexyl)-5-(1H-imidazol-1-yl)-1H-pyrazolo[3,4-c]pyridine-7-carboxamide]",< 0.01 µM
